Values quoted from earlier work as cited in patent publication EP0279688B1, “Methods and compositions for the use of HIV env polypeptides and antibodies thereto” (GENENTECH, INC., priority 1987, dated 1988).

System: viral replication
Conditions: Mitsuya and Broder, 1985

SMILES	concentrations inhibiting viral replication
Nc1ccn([C@H]2CC[C@@H](CO)O2)c(=O)n1 [DDC]	50-500 µm
Cc1cn([C@H]2C[C@H](N=[N+]=[N-])[C@@H](CO)O2)c(=O)[nH]c1=O [AZT]	50-500 µm
